For 20 compounds, Ki and logP results are on record in ChEMBL document CHEMBL1153452, “Synthesis and in vitro affinities of various MDL 100907 derivatives as potential 18F-radioligands for 5-HT2A receptor imaging with PET” (Bioorg Med Chem, 2009).

Among the targets are D(4) dopamine receptor (Homo sapiens, UniProt P21917); Mu-type opioid receptor (Homo sapiens, UniProt P35372); Histamine H1 receptor (Homo sapiens, UniProt P35367); Histamine H2 receptor (Homo sapiens, UniProt P25021); Histamine H3 receptor (Homo sapiens, UniProt Q9Y5N1); D(1A) dopamine receptor (Homo sapiens, UniProt P21728); D(1B) dopamine receptor (Homo sapiens, UniProt P21918).

For data set [1], the target named is T1, Alpha-1B adrenergic receptor (Homo sapiens, UniProt P35368).
T1 sequence (P35368 whole entry): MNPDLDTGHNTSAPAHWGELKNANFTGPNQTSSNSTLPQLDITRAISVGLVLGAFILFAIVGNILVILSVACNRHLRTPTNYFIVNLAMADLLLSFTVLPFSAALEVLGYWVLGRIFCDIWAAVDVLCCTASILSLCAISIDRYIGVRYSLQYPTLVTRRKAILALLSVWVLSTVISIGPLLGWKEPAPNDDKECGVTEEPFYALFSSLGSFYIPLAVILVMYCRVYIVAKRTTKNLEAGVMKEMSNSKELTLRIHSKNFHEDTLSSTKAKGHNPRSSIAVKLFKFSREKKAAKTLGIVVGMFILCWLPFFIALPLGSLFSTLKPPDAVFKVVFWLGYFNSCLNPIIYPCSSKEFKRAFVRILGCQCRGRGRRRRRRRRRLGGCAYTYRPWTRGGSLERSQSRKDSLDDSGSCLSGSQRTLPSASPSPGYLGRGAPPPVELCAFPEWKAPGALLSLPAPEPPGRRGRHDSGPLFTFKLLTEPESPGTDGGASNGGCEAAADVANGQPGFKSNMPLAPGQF

In data set [2] the target is T2, Alpha-2A adrenergic receptor (Homo sapiens, UniProt P08913).
T2 sequence (P08913 whole entry): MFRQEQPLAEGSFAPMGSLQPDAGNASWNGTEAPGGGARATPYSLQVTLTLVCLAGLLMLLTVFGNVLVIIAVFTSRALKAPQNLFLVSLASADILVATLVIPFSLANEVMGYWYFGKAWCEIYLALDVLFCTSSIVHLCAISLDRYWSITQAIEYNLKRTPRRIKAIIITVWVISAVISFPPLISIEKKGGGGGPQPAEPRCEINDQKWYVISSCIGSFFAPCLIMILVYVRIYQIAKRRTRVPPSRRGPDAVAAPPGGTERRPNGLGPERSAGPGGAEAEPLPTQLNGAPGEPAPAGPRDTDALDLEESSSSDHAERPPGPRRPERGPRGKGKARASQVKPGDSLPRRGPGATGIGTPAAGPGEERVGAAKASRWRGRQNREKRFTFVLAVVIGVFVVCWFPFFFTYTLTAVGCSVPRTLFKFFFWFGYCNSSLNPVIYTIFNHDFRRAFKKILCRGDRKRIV

For data set [3], the target named is T3, D(2) dopamine receptor (Homo sapiens, UniProt P14416).
T3 sequence (P14416 whole entry): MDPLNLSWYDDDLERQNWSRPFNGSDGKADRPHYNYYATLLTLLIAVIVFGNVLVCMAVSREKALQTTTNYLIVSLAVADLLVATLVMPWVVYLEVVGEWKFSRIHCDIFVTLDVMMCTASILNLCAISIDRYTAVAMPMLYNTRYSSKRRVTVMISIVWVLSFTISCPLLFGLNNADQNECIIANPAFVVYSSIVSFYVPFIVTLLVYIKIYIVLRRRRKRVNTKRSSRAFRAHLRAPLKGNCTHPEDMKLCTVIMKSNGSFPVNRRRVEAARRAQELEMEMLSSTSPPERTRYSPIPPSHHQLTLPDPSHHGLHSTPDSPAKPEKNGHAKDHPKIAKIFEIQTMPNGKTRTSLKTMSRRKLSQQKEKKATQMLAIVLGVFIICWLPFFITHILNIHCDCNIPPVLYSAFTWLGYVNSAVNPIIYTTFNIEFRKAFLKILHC
The nature of another data set: physchem. Conditions: Soerensen buffer.
The target of data set [4] is 5-hydroxytryptamine receptor 2B (Homo sapiens, UniProt P41595).
Chain of 5-hydroxytryptamine receptor 2B (P41595 whole entry): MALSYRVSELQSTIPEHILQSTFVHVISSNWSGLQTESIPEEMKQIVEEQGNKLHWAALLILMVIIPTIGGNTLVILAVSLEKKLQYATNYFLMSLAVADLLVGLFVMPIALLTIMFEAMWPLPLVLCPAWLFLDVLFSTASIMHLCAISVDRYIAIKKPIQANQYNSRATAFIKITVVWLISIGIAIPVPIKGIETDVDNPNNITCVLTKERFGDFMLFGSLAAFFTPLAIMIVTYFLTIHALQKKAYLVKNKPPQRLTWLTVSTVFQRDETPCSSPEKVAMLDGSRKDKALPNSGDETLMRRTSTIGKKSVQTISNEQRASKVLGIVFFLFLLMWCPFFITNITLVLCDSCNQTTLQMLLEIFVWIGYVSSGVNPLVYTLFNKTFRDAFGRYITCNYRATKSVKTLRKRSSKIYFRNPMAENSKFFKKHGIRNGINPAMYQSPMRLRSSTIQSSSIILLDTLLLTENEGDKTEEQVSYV
Data set [5] has as its target 5-hydroxytryptamine receptor 1D (Homo sapiens, UniProt P28221).
The target of data set [6] is Beta-3 adrenergic receptor (Homo sapiens, UniProt P13945).
Chain of Beta-3 adrenergic receptor (P13945 whole entry): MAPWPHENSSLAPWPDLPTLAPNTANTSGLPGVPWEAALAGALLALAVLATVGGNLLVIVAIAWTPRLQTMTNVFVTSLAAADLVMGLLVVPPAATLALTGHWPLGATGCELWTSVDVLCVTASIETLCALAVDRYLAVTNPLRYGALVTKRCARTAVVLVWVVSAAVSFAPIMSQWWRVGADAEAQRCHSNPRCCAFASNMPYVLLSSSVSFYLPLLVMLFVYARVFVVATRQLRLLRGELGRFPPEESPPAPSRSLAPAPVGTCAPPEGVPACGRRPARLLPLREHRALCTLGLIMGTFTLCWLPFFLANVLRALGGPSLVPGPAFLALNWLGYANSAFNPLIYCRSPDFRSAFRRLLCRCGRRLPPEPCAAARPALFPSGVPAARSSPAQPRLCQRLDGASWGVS
Data set [7] has as its target Sodium-dependent dopamine transporter (Homo sapiens, UniProt Q01959).
Data set [8] concerns the target 5-hydroxytryptamine receptor 5A (Homo sapiens, UniProt P47898).
Data set [9] has as its target Alpha-2C adrenergic receptor (Homo sapiens, UniProt P18825).
The target of data set [10] is 5-hydroxytryptamine receptor 6 (Homo sapiens, UniProt P50406).
Data set [11] has as its target Sodium-dependent serotonin transporter (Homo sapiens, UniProt P31645).
The target of data set [12] is T4, 5-hydroxytryptamine receptor 2A (Rattus norvegicus, UniProt P14842). Put plainly: biochemical.
T4 sequence (P14842 whole entry): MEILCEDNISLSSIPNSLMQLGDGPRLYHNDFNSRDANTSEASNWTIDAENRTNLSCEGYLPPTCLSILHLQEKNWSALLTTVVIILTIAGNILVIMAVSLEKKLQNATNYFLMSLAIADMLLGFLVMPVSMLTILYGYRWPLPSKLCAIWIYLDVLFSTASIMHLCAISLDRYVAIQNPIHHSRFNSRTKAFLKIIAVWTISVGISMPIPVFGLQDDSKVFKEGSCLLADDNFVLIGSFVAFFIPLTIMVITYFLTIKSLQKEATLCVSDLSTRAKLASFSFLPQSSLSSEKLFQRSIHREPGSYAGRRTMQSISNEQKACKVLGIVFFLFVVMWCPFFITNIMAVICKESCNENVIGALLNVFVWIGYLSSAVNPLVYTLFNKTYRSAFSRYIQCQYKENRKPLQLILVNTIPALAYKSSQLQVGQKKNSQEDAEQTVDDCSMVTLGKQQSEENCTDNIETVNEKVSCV
The target in data set [13] is Alpha-1A adrenergic receptor (Homo sapiens, UniProt P35348).
Data set [14] concerns the target T4, 5-hydroxytryptamine receptor 2A. The data set is described as follows: Displacement of [3H]altanserine from rat cortical membrane 5HT2A receptor. (In general: Loss of bound radioactivity is the signal in a displacement assay; it reports binding, not function.)
For data set [15], the target named is T3, D(2) dopamine receptor. Put plainly: Binding affinity to dopamine D2 receptor by competitive binding experiment.

Each structure is given as a SMILES string.

Chain of 5-hydroxytryptamine receptor 1D (P28221 whole entry): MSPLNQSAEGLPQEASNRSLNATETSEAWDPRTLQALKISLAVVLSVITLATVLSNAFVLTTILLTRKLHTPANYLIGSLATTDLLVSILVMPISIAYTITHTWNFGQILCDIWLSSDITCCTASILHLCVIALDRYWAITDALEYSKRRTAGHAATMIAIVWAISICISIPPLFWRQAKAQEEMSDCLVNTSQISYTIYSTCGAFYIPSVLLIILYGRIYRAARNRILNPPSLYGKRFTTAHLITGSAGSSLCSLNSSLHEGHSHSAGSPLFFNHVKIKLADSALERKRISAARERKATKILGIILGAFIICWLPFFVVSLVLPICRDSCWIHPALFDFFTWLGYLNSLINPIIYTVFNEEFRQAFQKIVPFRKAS
Chain of Mu-type opioid receptor (P35372 whole entry): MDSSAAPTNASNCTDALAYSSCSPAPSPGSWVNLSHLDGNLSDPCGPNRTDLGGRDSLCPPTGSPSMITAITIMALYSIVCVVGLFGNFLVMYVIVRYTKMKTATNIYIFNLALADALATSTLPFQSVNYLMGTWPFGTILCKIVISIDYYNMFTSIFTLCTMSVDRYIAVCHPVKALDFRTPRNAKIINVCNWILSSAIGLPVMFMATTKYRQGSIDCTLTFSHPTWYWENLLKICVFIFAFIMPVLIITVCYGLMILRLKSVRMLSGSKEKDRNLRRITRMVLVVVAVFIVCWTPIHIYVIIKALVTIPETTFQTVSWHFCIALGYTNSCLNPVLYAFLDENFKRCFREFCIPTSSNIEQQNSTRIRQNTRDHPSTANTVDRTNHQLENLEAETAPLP
Chain of D(1A) dopamine receptor (P21728 whole entry): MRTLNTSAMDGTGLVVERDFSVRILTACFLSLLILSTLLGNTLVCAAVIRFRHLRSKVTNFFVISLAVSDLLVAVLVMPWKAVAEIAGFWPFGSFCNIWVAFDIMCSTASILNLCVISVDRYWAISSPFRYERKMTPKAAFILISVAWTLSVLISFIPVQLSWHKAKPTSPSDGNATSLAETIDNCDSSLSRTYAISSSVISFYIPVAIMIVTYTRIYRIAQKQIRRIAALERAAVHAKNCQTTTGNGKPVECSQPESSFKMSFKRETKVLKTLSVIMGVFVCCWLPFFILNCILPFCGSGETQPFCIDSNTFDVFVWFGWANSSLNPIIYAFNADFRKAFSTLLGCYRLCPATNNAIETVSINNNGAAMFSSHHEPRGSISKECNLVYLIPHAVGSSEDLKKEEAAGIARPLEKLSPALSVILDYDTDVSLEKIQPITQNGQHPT
Chain of Histamine H3 receptor (Q9Y5N1 whole entry): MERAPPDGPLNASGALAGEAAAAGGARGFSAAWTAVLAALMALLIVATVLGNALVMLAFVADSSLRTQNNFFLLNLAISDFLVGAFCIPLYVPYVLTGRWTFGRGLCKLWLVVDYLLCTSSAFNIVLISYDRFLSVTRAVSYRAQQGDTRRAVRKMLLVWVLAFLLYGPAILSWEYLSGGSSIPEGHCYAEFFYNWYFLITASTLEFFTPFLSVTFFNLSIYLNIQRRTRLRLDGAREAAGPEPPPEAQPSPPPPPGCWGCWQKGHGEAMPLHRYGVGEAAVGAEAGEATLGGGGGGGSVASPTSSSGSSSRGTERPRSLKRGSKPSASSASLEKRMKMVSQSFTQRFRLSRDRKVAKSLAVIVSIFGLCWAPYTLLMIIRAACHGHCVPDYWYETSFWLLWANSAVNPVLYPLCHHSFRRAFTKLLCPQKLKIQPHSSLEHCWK
Chain of Histamine H2 receptor (P25021 whole entry): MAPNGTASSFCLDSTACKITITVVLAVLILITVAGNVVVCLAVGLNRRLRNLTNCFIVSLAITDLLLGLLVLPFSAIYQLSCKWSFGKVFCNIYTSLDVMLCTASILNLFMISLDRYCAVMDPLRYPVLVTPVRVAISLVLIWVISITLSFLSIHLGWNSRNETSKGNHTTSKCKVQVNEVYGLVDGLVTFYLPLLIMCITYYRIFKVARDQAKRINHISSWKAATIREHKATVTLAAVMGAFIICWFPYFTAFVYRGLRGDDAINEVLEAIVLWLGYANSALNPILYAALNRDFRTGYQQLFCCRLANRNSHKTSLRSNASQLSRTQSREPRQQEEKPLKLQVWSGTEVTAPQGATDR
Chain of Sodium-dependent serotonin transporter (P31645 whole entry): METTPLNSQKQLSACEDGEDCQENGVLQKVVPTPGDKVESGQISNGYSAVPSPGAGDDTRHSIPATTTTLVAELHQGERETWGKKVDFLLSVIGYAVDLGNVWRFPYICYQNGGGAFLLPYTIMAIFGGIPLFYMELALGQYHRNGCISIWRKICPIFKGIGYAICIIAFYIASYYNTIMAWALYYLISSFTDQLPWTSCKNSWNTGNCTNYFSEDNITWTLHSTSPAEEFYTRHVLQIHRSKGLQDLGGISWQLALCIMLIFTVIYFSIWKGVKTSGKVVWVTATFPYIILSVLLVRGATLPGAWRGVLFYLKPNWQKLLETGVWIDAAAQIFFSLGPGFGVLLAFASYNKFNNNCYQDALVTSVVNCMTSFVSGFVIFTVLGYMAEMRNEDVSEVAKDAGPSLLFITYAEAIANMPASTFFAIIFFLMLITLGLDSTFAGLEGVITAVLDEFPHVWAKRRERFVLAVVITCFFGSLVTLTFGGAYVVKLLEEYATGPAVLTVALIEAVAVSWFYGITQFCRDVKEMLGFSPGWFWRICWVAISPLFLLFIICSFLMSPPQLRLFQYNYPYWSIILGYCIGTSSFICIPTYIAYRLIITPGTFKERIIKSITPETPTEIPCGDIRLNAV
Chain of Histamine H1 receptor (P35367 whole entry): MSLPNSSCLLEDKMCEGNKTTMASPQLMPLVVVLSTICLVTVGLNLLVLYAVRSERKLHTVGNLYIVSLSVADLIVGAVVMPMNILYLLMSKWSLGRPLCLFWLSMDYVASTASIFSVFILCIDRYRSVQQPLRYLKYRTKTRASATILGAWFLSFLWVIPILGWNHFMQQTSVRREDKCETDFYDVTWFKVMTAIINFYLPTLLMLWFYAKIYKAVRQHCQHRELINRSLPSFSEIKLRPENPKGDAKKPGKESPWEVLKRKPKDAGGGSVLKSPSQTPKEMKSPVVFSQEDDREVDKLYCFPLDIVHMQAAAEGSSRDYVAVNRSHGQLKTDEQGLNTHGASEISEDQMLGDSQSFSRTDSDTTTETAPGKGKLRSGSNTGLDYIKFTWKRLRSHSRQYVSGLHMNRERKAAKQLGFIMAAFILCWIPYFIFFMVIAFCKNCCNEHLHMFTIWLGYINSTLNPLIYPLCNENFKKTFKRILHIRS

A word on the Ki: it is the dissociation constant of the complex between target and ligand, obtained from inhibition or displacement. Read a low Ki as tighter binding. The logP is the decadic logarithm of the partition coefficient of the neutral form, usually between octanol and water. A lower logP goes with lower lipophilicity. On to `COc1c(OCCF)cccc1C(O)C1CCN(CCc2ccc(F)cc2)CC1` (configuration not stated), for which the inhibitory constant (Ki) in data set [1] was 325 nM; on D(4) dopamine receptor, 544 nM; on Mu-type opioid receptor, above 10000 nM; in data set [2], above 10000 nM; at D(2) dopamine receptor [3] it was above 10000 nM; in [4], 299 nM. Besides, the inhibition constant (Ki) at Histamine H1 receptor is 374 nM; in data set [5], 706 nM; at Histamine H2 receptor, 3180 nM; on Histamine H3 receptor, above 10000 nM; at D(1A) dopamine receptor it was 899 nM; in data set [6], above 10000 nM. Also, the inhibition constant Ki in [7] is above 10000 nM; in data set [8] it was above 10000 nM; in data set [9], 148 nM; in data set [10] it was 3890 nM; in data set [11] it was 3520 nM. Further, in the data set “physchem”, the logP was 2.8.
Take `COc1c(O)cccc1C(O)C1CCN(CCc2ccc([N+](=O)[O-])cc2)CC1` (configuration not stated): in the data set “physchem”, the logP stood at 1.9.
`COc1c(OCCF)cccc1C(O)C1CCN(CCc2ccc([N+](=O)[O-])cc2)CC1` (configuration not stated) displayed a lipophilicity (logP) in the data set “physchem” of 2.37. Also, the inhibition constant Ki in data set [4] was 1840 nM; in [5], 3420 nM; in data set [12] it was 26 nM; in data set [8] it was above 10000 nM; in data set [10], above 10000 nM.
`COc1ccc(CCN2CCC(C(=O)c3cccc(OCCF)c3OC)CC2)cc1` came in with a lipophilicity (logP) in “physchem” of 3.02. The Ki in data set [4] was 1970 nM; in data set [5], 1440 nM; in data set [12], 153 nM; in data set [8], above 10000 nM; in data set [10], above 10000 nM.
In data set [12], `COc1cccc(C(O)C2CCN(Cc3ccc(F)cc3)CC2)c1OC` (configuration not stated) returned a Ki above 1000 nM.
On the same count and under the same terms, next, `COc1c(O)cccc1[C@H](O)C1CCN(CCc2ccc(F)cc2)CC1`: 0.25 nM; `COc1c(O)cccc1C(=O)C1CCN(CCc2ccc(F)cc2)CC1`: 1.34 nM; `COc1c(OCCF)cccc1C(O)C1CCN(CCc2ccc(N)cc2)CC1` (configuration not stated): 2.06 nM.
For `COc1ccc(CCN2CCC(C(O)c3cccc(OCCF)c3OC)CC2)cc1` (configuration not stated), the lipophilicity (logP) in the data set “physchem” stood at 2.72. Further, the Ki in data set [4] was 2750 nM; in data set [5], above 10000 nM; in data set [12] it was 59 nM; in data set [8], above 10000 nM; in data set [10], above 10000 nM.
For the compound `COc1c(OCCF)cccc1C(=O)C1CCN(CCc2ccc([N+](=O)[O-])cc2)CC1`, the logP in “physchem” came to 2.71. Besides, the Ki is 1050 nM in data set [4]; 1830 nM in [5]; 118 nM in data set [12]; above 10000 nM in [8]; above 10000 nM in data set [10].
`COc1c(OCCF)cccc1C(O)C1CCN(C(=O)Cc2ccccc2)CC1` (configuration not stated) registered a lipophilicity (logP) in the data set “physchem” of 1.57. Further, the affinity in data set [12] corresponds to a Ki of 1990 nM.
Turning to `COc1c(OCCF)cccc1C(O)C1CCN(CCc2ccccc2)CC1` (configuration not stated), the lipophilicity (logP) in “physchem” amounted to 2.92. For the same compound, the affinity in data set [12], expressed as Ki, was 1.63 nM.
Compound `COc1c(O)cccc1C(O)C1CCN(CCc2ccc(F)cc2)CC1` (configuration not stated) registered a logP in “physchem” of 2.27. Besides, affinity in data set [12] was put at a Ki of 1.24 nM.
In the case of `COc1ccc(CCN2CCC(C(O)c3cccc(OC)c3OC)CC2)cc1` (configuration not stated), in data set [12], the Ki amounted to 55 nM.
The same measure, in the same setting: next, `COc1cccc(C(O)C2CCN(CCc3ccc(C)cc3)CC2)c1OC` (configuration not stated): 0.31 nM.
As to `COc1c(OCCF)cccc1[C@H](O)C1CCN(CCc2ccc(F)cc2)CC1`, the inhibition constant Ki is 500 nM in data set [1]; 335 nM in [13]; 442 nM on D(4) dopamine receptor; above 10000 nM on Mu-type opioid receptor; above 10000 nM in [2]; 2690 nM on D(2) dopamine receptor [3]. Moreover, the Ki is 320 nM in [4]; 509 nM at Histamine H1 receptor; 1060 nM in [5]; 0.72 nM in data set [12]; 2430 nM at Histamine H2 receptor; above 10000 nM at Histamine H3 receptor. The Ki was 3830 nM on D(1A) dopamine receptor; above 10000 nM in [6]; above 10000 nM in [7]; 6810 nM in data set [8]; 3840 nM in [10]; 7420 nM at D(1B) dopamine receptor. The same compound came in with an inhibition constant (Ki) in data set [11] of 2210 nM. The compound also displayed a logP in “physchem” of 2.8.
For `COc1c(OCCF)cccc1C(=O)C1CCN(CCc2ccc(F)cc2)CC1`, the Ki is 550 nM in data set [1]; 146 nM in data set [13]; 174 nM on D(4) dopamine receptor; above 10000 nM on Mu-type opioid receptor; 863 nM in [2]; 3830 nM on D(2) dopamine receptor [3]. Moreover, the Ki was 960 nM in data set [4]; 944 nM on Histamine H1 receptor; 713 nM in [5]; 3.23 nM in data set [12]; 1760 nM on Histamine H2 receptor; above 10000 nM on Histamine H3 receptor. The Ki on D(1A) dopamine receptor is 1410 nM; in data set [6], above 10000 nM; in data set [7], above 10000 nM; in [8] it was 1580 nM; in [9] it was 333 nM; in data set [10] it was above 10000 nM. Besides, the Ki on D(1B) dopamine receptor came to 7400 nM; in data set [11], 3090 nM. The compound also had a logP in “physchem” of 3.08.
For the compound `COc1cccc(C(O)C2CCN(CCc3ccc([N+](=O)[O-])cc3)CC2)c1OC` (configuration not stated), the Ki in data set [12] was found to be 90 nM.
For `O=C(c1ccc(F)cc1)C1CCN(CCn2c(=S)[nH]c3ccccc3c2=O)CC1` [ALTANSERIN], the Ki in data set [14] stood at 0.13 nM; on D(2) dopamine receptor [15], 62 nM; in [12], 0.72 nM. Further, in “physchem”, the logP worked out at 2.15.
Compound `COc1cccc([C@H](O)C2CCN(CCc3ccc(F)cc3)CC2)c1OC` [VOLINANSERIN] came in with a logP in “physchem” of 2.98.
